Results on five compounds are retold here after patent publication US20090197891A1, “Use of (4-Alkylpiperazinyl)(phenyl) methanones in the treatment of alzheimer's disease” (priority 2004, published 2009).

Format in all cases: cell-based, rat
Data set [1] relates to PC12 cells. Kind of data set: Glutamate-induced excitotoxicity, cell viability by MTT assay. Conditions: for prevention of glutamate-induced neurotoxicity: 24 h pre-treatment with compound 0.3-30 μM. The procedure:
To study the role played by the NMDA receptor in the Aβ1-42-induced neurotoxicity, increasing concentrations of (+)-MK801 were added to the cell media immediately before Aβ1-42. Cell viability was assessed 4 hours later using the MTT assay. To assess the effect of procaine and SP008 on the glutamate-induced excitotoxicity, PC12 cells were pre-treated with procaine or SP008 at 0.3, 1, 3, 10 and 30 μM for 24 hours and then submitted to glutamate exposure for another 24 hour time period. Cell viability was subsequently assessed using the MTT assay. To assess the role of sodium channels in A8142-induced neurotoxicity, PC12 cells were incubated for 4 hours with the sodium-channel blocker TTX at 3, 30 or 300 μM followed by addition of Aβ1-42. Cell viability was assessed by MTT 24 hours later. The involvement of the oxidative stress in the toxicity of Aβ1-42 was assessed by incubating the PC12 in the presence of 10, 100 or 500 μM PBN for 24 hours. Aβ1-42 was then added to the incubation media. Cell viability was assessed by MTT 24 hours later.
(§1) The cellular toxicity of Aβ was assessed using the 3-(4,5-dimethylthiazol-2-yl)-2,5-diphenyl tetrazolium bromide (MTT) assay (Trevigen, Gaithersburg, Md.) as previously described (Lecanu et al. (2004) Steroids, 69: 1-16). Briefly, 10 μl of the MTT solution were added to the cells cultured in 100 μl of medium. After an incubation period of 4 hours in the same conditions as above, 100 μl of detergent were added and cells incubated overnight at 37° C. The blue coloration was quantified at 600 nm and 690 nm using the Victor spectrophotometer (EGG-Wallac, Gaithersburg, Md.). The effect of Aβ1-42 was expressed as (DO600-DO690). To compare the protective effect of the compounds tested, the decrease of MTT signal observed with Aβ1-42 was considered to be the 100% inhibition of the NADPH diaphorase activity and the effect of the compounds tested is shown as an increase or decrease of this percentage.

Data set [2] concerns PC12 cells. Kind of data set: Aβ1-42-induced ATP depletion, ATPLite-M assay. Conditions: for protective effect on mitochondrial function / ATP content: compound at 1 μM. The procedure: (§2) PC12 cells (rat pheochromocytoma) (ATCC, Manassas, Va.) were cultured in RPMI 1640 without glutamine medium containing 10% of bovine serum and 5% of horse serum at 37° and 5% CO2. These cells respond reversibly to NGF by induction of the neuronal phenotype. PC12 cells were incubated for 24 hours in 96-well plates (5.10^4 cells per well) with increasing concentrations (1, 10 and 100 μM) of procaine, procainamide, lidocaine, tetracaine, SP015, SP016, SP017 or SP008. Aβ1-42 was incubated overnight at 4° C. and then added to the cells at 0.1, 1 or 10 μM final concentrations for a 24 hours time period.
ATP concentrations were measured using the ATPLite-M™ assay (Packard BioSciences Co.), as previously described (Lecanu et al., cited above). In brief, cells were cultured on black 96-well ViewPlate™ and the ATP concentrations measured on a TopCount NXT™ counter (Packard BioSciences Co.) according to the manufacturer recommendations. The effect of Aβ1-42 was expressed in arbitrary units. To compare the potential protective effect of the compounds tested on ATP recovery, the decrease of ATP concentration induced by Aβ1-42 was considered to be 100% reduction and the effects of the compounds tested are shown as changes of this percentage.
On the technique in general: In ATP-based viability assays light output follows the ATP content of the culture.

Data set [3] deals with PC12 cells. Kind of data set: Aβ1-42-induced neurotoxicity, cell viability by MTT assay. The procedure:
as §2, §1
(Tetrazolium dyes change colour on reduction, which living cells bring about.)

Entries after “also recorded” stand apart in the source; their conditions may differ.

With `CCN(CC)CCOC(=O)c1ccc(N)cc1` [procaine, reference compound], in the data set on PC12 cells [1], the “inhibition of the neurotoxic effect of glutamate, general statement” value is recorded as “inhibited the neurotoxic effect”. Besides, in the data set on PC12 cells [1] (glutamate 100 μM), the “prevention of glutamate-induced neurotoxicity” value is “prevented the glutamate-induced neurotoxicity in a biphasic manner”. Moreover, the “preservation of intracellular ATP against Aβ1-42, general statement” value (shortened to “preservation of intracellular ATP”) in the data set with PC12 cells [2] was “restore partially”.
`CC(=O)OC1CC(O)C2(C)C(OC(C)=O)C3C(CC(C)C12)OC(=O)C3CN1CCN(C(=O)c2ccccc2)CC1` (stereo not drawn) [SP015, Acetic acid 7-acetoxy-3-(4-benzoyl-piperazin-1-yl-methyl)-5-hydroxy-4a,8-dimethyl-2-oxo-dodecahydro-azuleno[6,5-b]furan-4-yl ester]: in the data set with PC12 cells [2], the “preservation of intracellular ATP” value is reported as “preservation of the ATP cellular stocks”. In the data set on PC12 cells [2] (highest Aβ1-42 concentration examined), the “protective effect on mitochondrial function / ATP content” value is given as “important protection”. For the same compound, the “neuroprotection against Aβ1-42 (PC12 viability), general statement” value (“neuroprotection … general statement” for short) in the data set on PC12 cells [3] was “neuroprotection”. In addition, the “neuroprotective effect on PC12 viability after Aβ1-42 exposure” value with PC12 cells [3] (compound at 1 and 10 μM, only against 10 μM Aβ1-42) is reported as “displayed a neuroprotective effect”.
Take `CCN1CCN(C(=O)c2ccc(OC)c(OC)c2OC)CC1` [SP008, 4-Ethyl-1-(2,3,4-trimethoxybenzoyl)-piperazine]: in the data set on PC12 cells [1], the “inhibition of the neurotoxic effect of glutamate, general statement” value is on record as “inhibited the neurotoxic effect” and the “lowest concentration reducing glutamate-induced neurotoxicity” value came to 0.3 µM. In addition, the “prevention of glutamate-induced neurotoxicity” value in the data set on PC12 cells [1] (glutamate 100 μM) is listed as “biphasic”. The “neuroprotective effect compared with procaine at the same concentration” value in the data set with PC12 cells [1] (glutamate 100 μM, p<0.001) is given as “more important than the procaine effect”. Besides, the “concentration of maximum (peak) protective effect” value in the data set on PC12 cells [1] (glutamate 100 μM, p<0.001 compared to control) is 3 µM. Moreover, the “preservation of intracellular ATP” value in the data set with PC12 cells [2] is on record as “preserved Aβ1-42-induced ATP depletion”. The “preservation of Aβ1-42-depleted ATP stock” value in the data set with PC12 cells [2] (0.1 μM Aβ1-42, compound at 10 μM) is listed as “did not preserve”. Further, in the data set on PC12 cells [2] (0.1 μM Aβ1-42, compound at 1 and 100 μM, p<0.05), the “prevention of ATP decrease” value is on record as “prevented the ATP decrease”. The ATP preservation result in the data set with PC12 cells [2] (1 μM Aβ1-42, compound 1-100 μM) is given as “dose-dependent ATP preservation”. In addition, the “restoration of ATP levels” value in the data set with PC12 cells [2] (10 μM Aβ1-42, only 100 μM compound statistically significant (p<0.01)) is “dose-dependent restoration of ATP levels”. The “prevention of Aβ1-42-induced intracellular ATP stock depletion” value in the data set on PC12 cells [2] (even against 10 μM Aβ1-42) is “prevent the Aβ1-42-induced intracellular ATP stock depletion”. In the data set on PC12 cells [3], the “neuroprotection … general statement” value is given as “significant neuroprotective properties; also recorded: strong neuroprotective properties”. Moreover, the “protective effect against Aβ1-42-induced cytotoxicity (MTT)” value in the data set with PC12 cells [3] (0.1 μM Aβ1-42, compound at 10 μM, p<0.01) is “exerted a protective effect”. In the data set on PC12 cells [3] (0.1 μM Aβ1-42, compound at 1 and 100 μM), the “reduction of Aβ1-42-induced NADPH diaphorase inhibition (MTT)” value is “did not reduce”. The “neuroprotective effects against Aβ1-42 (MTT)” value with PC12 cells [3] (1 μM Aβ1-42, compound at 1 (p<0.05), 10 (p<0.01) and 100 μM (p<0.001)) is “demonstrated neuroprotective effects”. The “neuroprotective properties against Aβ1-42-induced toxicity (MTT)” value with PC12 cells [3] (10 μM Aβ1-42, compound at 10 (p<0.05) and 100 μM (p<0.01)) is “displayed neuroprotective properties”. Further, the “potency against Aβ1-42 compared with procaine” value in the data set with PC12 cells [3] (two highest concentrations of Aβ1-42) is on record as “more potent than procaine”.
On to `CC(=O)OC1CC(OC(C)=O)C2(C)C(O)C3C(CC(C)C12)OC(=O)C3CN1CCN(C(=O)c2ccccc2)CC1` (stereo not drawn) [SP016, acetic acid 5-acetoxy-3-(4-benzoylpiperazin-1-yl-methyl)-4-hydroxy-4a,8-dimethyl-2-oxo-dodecahydro-azuleno[6,5-b]furan-7-yl ester], for which the “preservation of intracellular ATP” value in the data set with PC12 cells [2] is listed as “preservation of the ATP cellular stocks”. The “protective effect on mitochondrial function / ATP content” value in the data set with PC12 cells [2] (low Aβ1-42 concentrations (0.1 μM)) is reported as “significant effect”. For the same compound, the “neuroprotection … general statement” value in the data set with PC12 cells [3] is “no effect was observed”.
Take `CC1=CCC23OC2(C)CCC2C(CN4CCN(C(=O)c5ccccc5)CC4)C(=O)OC2C13` (stereo not drawn) [SP017, 3-(4-benzoyl-piperazin-1-yl-methyl)-6,6a-epoxy-6,9-dimethyl-3a,4,5,6,6a,7,9a,9b-octahydro-3H-azuleno[4,5-b]furan-2-one]: the “preservation of intracellular ATP” value with PC12 cells [2] is “preservation of the ATP cellular stocks”. Moreover, in the data set with PC12 cells [3], the “efficacy range, inhibition of Aβ1-42 toxicity (mitochondrial diaphorase activity)” value was 30-70% and the “neuroprotection … general statement” value is recorded as “highest protective effect; also recorded: neuroprotection”.
